Reference: patent US20200361919A1, “DEUTERATED INDOLEAMINE 2,3-DIOXYGENASE INHIBITOR AND APPLICATION THEREOF” (NANJING TRANSTHERA BIOSCIENCES CO. LTD., priority 2017, published 2020)
Like-named read-outs stand apart in the source and are kept apart here. Each block holds one molecule with its values, some of them ahead of it.

How the values were obtained:
[1] = Evaluation of pharmacokinetics in mice; type: in vivo, C57BL/6 female mice; conditions: for Cl_obs / Vz_obs / tz 1/2 / AUC(0-t) / AUC(0-inf): IV 5 mg/kg, C57BL/6 female mice, mean; for AUC(0-t) / AUC(0-inf): mouse, plasma; for AUC(0-inf): read-out: AUCINF_obs
Experimental: Test substance: Compound 1 of the present invention,prepared according to the method of Example 1 or Step 3 of Example 5;
Compound R, prepared as described in Example 8.
Animal: C57BL/6 female mice
The Compound 1 used in the test was dissolved in 10% DMA+10% (30% solutol)+80% saline to prepare a solution, and the non-deuterated compound was dissolved in 10% DMA+10% PEG+80% saline to prepare a solution. C57BL/6 female mice were administered intravenously with Compound 1 at a dose of 5.0 mg/kg. The time points for blood sampling were: 5 min, 15 min, 30 min, 1 h, 2 h, 4 h, 6 h, 8 h, and 24 h. About 100 μL of blood was collected from the venous plexus, and the blood sample was placed in an anti-coagulation tube containing EDTA-K2. The blood sample was centrifuged at 8000 rpm for 6 minutes at 4° C. to obtain a plasma sample, wherein the plasma must be prepared within 30 minutes after blood sampling, and stored in −80° C. refrigerator before plasma testing.
The sample (−80° C.) to be tested was taken out from the refrigerator, melted at room temperature and vortexed for 5 minutes; 10 μL of plasma samples of 3 different individuals were precisely pipetted into 1.5 mL centrifuge tubes (for standard curve of plasma, 30 μL); 200 μL of 100 ng/mL internal standard working solution was added, and mixed well; vortexed for 5 min, then centrifuged for 5 min (12000 rpm); precisely pipetted 50 μL of supernatant into a 96-well plate to which was added 150 μL/well of water in advance; vortexed and mixed for 5 min. The injection volume was 15 μL, and LC-MS/MS measurement was carried out.
The concentrations of test substance were used from the analysis results of AB Analyst 1.6.3. Microsoft Excel was used to calculate the parameters such as mean, standard deviation, and coefficient of variation (those directly output from Analyst 1.6.3 were not calculated). The PK parameters were calculated using Pharsight Phoenix 6.1 software NCA.

Hela cells = assay: Cytological evaluation in rhIFN-γ stimulated Hela cells; type: cell-based; conditions: rhIFN-γ 50 ng/ml, read-out: Hela Cell IC50
Experimental: Test substances: Compounds 1-3 of the present invention, prepared as described in the previous specific Examples.
Hela cell line (Cell Bank, Chinese Academy of Sciences)
Recombinant human IFN-γ (rhIFN-γ, purchased from R&D Systems, Cat. No. 285-IF-100)
Cell plating: Hela cell suspension was prepared with fresh phenol red-free DMEM medium, and 20,000 cells/well were added to a 96-well cell culture plate, and cultured in 5% carbon dioxide at 37° C. overnight.
Preparation of compounds: the compounds were made up into 0.5 mM solution with DMSO, and the compounds were diluted 3.16 times with DMSO to obtain 8 compound mother liquors of concentration gradients (500×), and diluted with cell culture medium to prepare 10× dilutions.
Medication and incubation: After the cells were seeded and cultured overnight, 10 μL of a compound of the corresponding diluted mother liquor (10×) was added to each well and incubated for 1 hour, then 10 μL of 500 ng/ml rhIFN-γ was added, the final volume of each well was 100 μL. The negative control wells contained 100 μL of 0.5% DMSO cell culture medium and Hela cells. The positive control wells were the wells where rhIFN-γ at a final concentration of 50 ng/ml was added to the negative control wells, and the background control wells contained 100 μL of cell culture medium. After incubation in a 37 ° C. incubator for 24 hours. the cell morphology was observed under an inverted microscope.
Detection: After the cell plate was centrifuged, 80 μL of the supernatant was taken and added to a Corning 96-well plate, 10 μL of trichloroacetic acid was added to each well, shaken, placed in a 60 ° C. incubator for 30 minutes, and centrifuged at 2500 rpm for 5 minutes. 45 μL of the supernatant was taken and transferred to a new plate, 45 μL of chromogenic solution was added, shaken to make the reaction uniform. After incubating at room temperature for 15 minutes, the absorbance at 492 nm wavelength was read.

IDO-1 = molecular target: T1, IDO-1 (Homo sapiens, UniProt P14902); assay: Enzymatic assay, IDO-1; type: biochemical
T1 construct: made in house
T1 sequence (P14902 whole entry, species assumed): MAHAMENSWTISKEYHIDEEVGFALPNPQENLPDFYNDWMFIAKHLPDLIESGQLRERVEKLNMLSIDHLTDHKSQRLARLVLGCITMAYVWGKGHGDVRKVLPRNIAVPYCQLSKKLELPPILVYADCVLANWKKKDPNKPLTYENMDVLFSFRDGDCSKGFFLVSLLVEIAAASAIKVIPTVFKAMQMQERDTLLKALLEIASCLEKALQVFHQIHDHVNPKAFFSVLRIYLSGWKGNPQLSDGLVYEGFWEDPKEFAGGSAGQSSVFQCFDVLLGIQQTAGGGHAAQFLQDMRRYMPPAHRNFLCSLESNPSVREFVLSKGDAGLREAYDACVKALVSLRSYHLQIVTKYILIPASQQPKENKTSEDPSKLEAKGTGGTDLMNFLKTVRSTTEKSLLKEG
Experimental: (§1) Test substance: Compound 1 of the present invention, prepared according to the method of Example 1 or the Step 3 of Example 5
(§2) I. Experimental materials and instruments
(§3) Preparation of compound: The compound was made up into 1 mM compound mother liquor with DMSO, and then the compound was diluted 3.16 times with DMSO to obtain 10 concentration gradients (100×) of the compound of the diluted mother liquors..
(§4) Medication and incubation: 10 μL of 100× compound of the diluted mother liquors were added into a 96-well plate, to which was added 10 μL of enzyme solution (IDO-1 or TDO), centrifuged at 2000 rpm for 1 minute, and incubated at room temperature for 30 minutes. 4% DMSO enzyme-free solution was used as a negative control, and 4% DMSO enzyme-containing solution was used as a positive control. 20 μL of substrate mixture (L-tryptophan, ascorbate, methylene blue, catalase) was added and incubated for 1 hour at room temperature, then 20 μL of stop solution was added to the experimental plate to terminate the reaction. After shaking and mixing, incubation was carried out at 60° C. for 30 minutes. […]
(§5) Detection: A microplate reader was used to detect the absorbance value at 492 nm.
(§6) Calculation: The inhibition rate was calculated according to the following formula, using the Spectramax program to fit the curve slope, and using GraphPad Prism5.0 to fit the IC50: […]

CT26 cells = assay: In vivo pharmacodynamics, subcutaneous homograft model with colon cancer cell CT26 in mouse; set-up: species or system Balb/C mice; conditions: 150 mg/kg PO Bid 10 days, CT26 tumor-bearing mice
Experimental: Test substance: Compound 1 of the present invention, which structure was shown in the foregoing.
CT26 cells were cultured in RPMI1640 medium containing 10% fetal bovine serum. CT26 cells in exponential growth phase were collected, and resuspended in PBS to a suitable concentration for subcutaneous tumor inoculation in mice.
0.1 mL of cell suspension (cells suspended in PBS) containing about 5×10^5 CT26 cells was subcutaneously inoculated into the skin of the right back of female Balb/C mice. The mice were grouped and administrated when the average tumor volume reached about 100 mm^3. Grouping method: weighing animals before administration, and measuring tumor volume. According to tumor volume, the mice were grouped using block design, 9 mice in each group.
Administration was performed according to Table 7 below.
The animals' health and death were monitored daily, their body weights and tumor volumes were measured twice a week, and samples were collected after the last dose. The curative effect of tumor volume was evaluated by TGI%, wherein relative tumor suppression rate TGI (%) was: TGI=1-T/C (%). T/C% was the relative tumor increment rate, that is, the percentage of tumor volume in the treatment group relative to that of the control group at a specific time point. […]

TDO = molecular target: T2, TDO (Homo sapiens, UniProt P48775); assay: Enzymatic assay, TDO; type: biochemical
T2 construct: made in house
T2 sequence (P48775 whole entry, species assumed): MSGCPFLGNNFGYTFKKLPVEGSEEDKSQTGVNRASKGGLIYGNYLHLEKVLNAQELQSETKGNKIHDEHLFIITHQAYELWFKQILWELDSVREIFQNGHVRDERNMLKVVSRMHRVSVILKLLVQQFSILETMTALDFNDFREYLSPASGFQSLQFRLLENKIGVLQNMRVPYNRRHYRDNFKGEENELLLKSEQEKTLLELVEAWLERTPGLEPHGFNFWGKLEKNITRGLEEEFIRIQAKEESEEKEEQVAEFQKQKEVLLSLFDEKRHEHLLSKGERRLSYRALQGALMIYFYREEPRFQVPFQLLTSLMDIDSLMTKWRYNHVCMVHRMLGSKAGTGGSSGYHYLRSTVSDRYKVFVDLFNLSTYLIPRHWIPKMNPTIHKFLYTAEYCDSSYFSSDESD
Experimental: as §1, §2, §3, §4, §5, §6

[2] = Stability test of Crystalline Form A; type: physicochemical
Text: Method: Crystalline Form A was left open at high temperature and in high humidity conditions, and XRPD patterns were compared to […]. The data in Table 5 below were obtained.

[3] = Stability test of Crystalline Form B; type: physicochemical
Text: Method: Crystalline Form B was left open for 10 days at high temperature and in high humidity conditions. The properties, measured content and impurities of the Crystalline Form B were observed, and the XRPD patterns were compared to obtain the data in Table 6.

[4] = IV 5 mg/kg mice, compared with Compound R
[5] = High temperature, 60° C., left open, 10 days

SMILES: [2H]C1([2H])CC(Nc2nonc2C(=NO)Nc2ccc(F)c(Br)c2)CC([2H])([2H])S1(=O)=O [Compound 1, N-(3-bromo-4-fluorophenyl)-4-((1,1-dioxotetrahydro-2H-thian-4-yl-2,2,6,6-d4)amino)-N′-hydroxy-1,2,5-oxadiazole-3-carboxamidine]
- clearance rate (in words) [1, 4]: lower
- exposure amount (in words) [1, 4]: higher
- Cl_obs [1]: 36.5 mL/min/kg
- Vz_obs [1]: 11.7 L/kg
- tz 1/2 [1]: 3.70 h
- AUC(0-t) [1]: 2040 ng·h/mL
- AUC(0-inf) [1]: 2290 ng·h/mL
- IC50 (Hela cells; 24 hours): 99.7 nM
- IC50 (IDO-1): 85.4 nM
- TGI (tumor volume inhibition rate) (CT26 cells): 38%
- Tumor volume (CT26 cells): 414.32 ± 52.44 mm^3
- IC50 (TDO): 5040 nM

SMILES: [2H]C1([2H])CC(Nc2nonc2C(=NO)Nc2ccc(F)c(Br)c2)C([2H])([2H])S1(=O)=O (stereo not drawn) [Compound 2, N-(3-bromo-4-fluorophenyl)-4-((1,1-dioxotetrahydro-thiophen-3-yl-2,2,5,5-d4)amino)-N-hydroxy-1,2,5-oxadiazole-3-carboxamidine]
- IC50 (Hela cells; Homo sapiens, HeLa, 24 h): 50.5 nM

SMILES: [2H]C1([2H])C(Nc2nonc2C(=NO)Nc2ccc(F)c(Br)c2)C([2H])([2H])S1(=O)=O [Compound 3, N-(3-bromo-4-fluorophenyl)-4-((1,1-dioxothiacyclobutan-3-yl-2,2,4,4-d4)amino)-N′-hydroxy-1,2,5-oxadiazole-3-carboxamidine]
- IC50 (Hela cells; Homo sapiens, HeLa, 24 h): 49.6 nM

SMILES: O=S1(=O)CCC(Nc2nonc2C(=NO)Nc2ccc(F)c(Br)c2)CC1 [Compound R, N-(3-bromo-4-fluorophenyl)-4-((1,1-dioxotetrahydro-2H-thian-4-yl)amino)-N′-hydroxy-1,2,5-oxadiazole-3-carboxamidine, reference compound]
- Cl_obs [1]: 73.2 mL/min/kg
- Vz_obs [1]: 12 L/kg
- tz 1/2 [1]: 1.81 h
- AUC(0-t) [1]: 1120 ng·h/mL
- AUC(0-inf) [1]: 1140 ng·h/mL

Other lines, results leading:

- IC50 (Hela cells; 24 hours): 40 nM
- Impurity, % ([2]; 0-Day): 0.74%
- XRPD ([2]; 0-Day): Crystal Form A, FIG. 1
- XRPD ([2]; High temperature, 105° C., left open, 3 days): Consistent with the 0-day XRPD
- XRPD ([2]; RH 92.5%, left open, 3 days): Consistent with the 0-day XRPD
- Impurity, % ([2]; RH 92.5%, left open, 10 days): 0.99%
SMILES: [2H]C1([2H])CC(Nc2nonc2C(=NO)Nc2ccc(F)c(Br)c2)CC([2H])([2H])S1(=O)=O [Crystal Form A of Compound 1]

- Content, % ([3]; 0-Day): 99.6%
- Impurity, % ([3]; 0-Day): 0.17%
- Properties ([3]; 0-Day): Off-white
- XRPD ([3]; 0-Day): Crystal Form B,
- Content, % [3, 5]: 99.4%
- Impurity, % [3, 5]: 0.16%
- Properties [3, 5]: Off-white
- Content, % ([3]; RH 92.5%, left open, 10 days): 99.3%
- Impurity, % ([3]; RH 92.5%, left open, 10 days): 0.15%
- Properties ([3]; RH 92.5%, left open, 10 days): Off-white
- IC50 (Hela cells; 24 hours): 30 nM
SMILES: [2H]C1([2H])CC(Nc2nonc2C(=NO)Nc2ccc(F)c(Br)c2)CC([2H])([2H])S1(=O)=O [Crystal Form B of Compound 1]
